Measurements as given in patent US6737383B1, “Herbicidal oxadiazolidines” (priority 1999, dated 2004).

Key:
[1] = test system: wild oat; test: Test B pre/postemergence wild oat; type: in vivo, Avena fatua
Method in brief: (§1)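 Response is a visual 0-to-10 score relative to untreated plants, where 0 means no effect and 10 means complete control, taken twelve to sixteen days after application. Treatments went onto soil at planting and onto foliage of 1- to 4-leaf plants, using a surfactant-containing non-phytotoxic solvent.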

[2] = test system: crabgrass; test: Test B pre/postemergence crabgrass; type: in vivo, Digitaria sanguinalis
Method in brief: as §1

[3] = test system: cocklebur; test: Test B pre/postemergence cocklebur; type: in vivo, Xanthium strumarium
Method in brief: as §1

[4] = test system: smallflower flatsedge; test: Test B flood test smallflower flatsedge; type: in vivo, Cyperus difformis
Method in brief: (§2)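 Each value is a visual injury score relative to controls, with 10 meaning complete control and 0 no effect. Evaluation took place twelve to sixteen days after the 2-leaf-stage plants were treated and kept in the greenhouse.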

[5] = test system: bedstraw; test: Test B pre/postemergence bedstraw; type: in vivo, Galium aparine; conditions: Preemergence
Method in brief: as §1

[6] = test system: pigweed; test: Test B pre/postemergence pigweed; type: in vivo, Amaranthus retroflexus
Method in brief: as §1

[7] = test system: velvetleaf; test: Test B pre/postemergence velvetleaf; type: in vivo, Abutilon theophrasti
Method in brief: as §1

[8] = test system: rice; test: Test B flood test rice; type: in vivo, Oryza sativa
Method in brief: as §2

[9] = test system: surinam grass; test: Test B pre/postemergence surinam grass; type: in vivo, Brachiaria decumbens
Method in brief: as §1

[10] = test system: morningglory; test: Test B pre/postemergence morningglory; type: in vivo, Ipomoea hederacea
Method in brief: as §1

[11] = test system: bamyardgrass; test: Test B flood test barnyardgrass; type: in vivo, Echinochloa crus-galli
Method in brief: as §2

[12] = test system: giant foxtail; test: Test B pre/postemergence giant foxtail; type: in vivo, Setaria faberii
Method in brief: as §1

[13] = test system: corn; test: Test B pre/postemergence corn; type: in vivo, Zea mays
Method in brief: as §1

[14] = test system: sugar beet; test: Test B pre/postemergence sugar beet; type: in vivo, Beta vulgaris
Method in brief: as §1

[15] = test system: blackgrass; test: Test B pre/postemergence blackgrass; type: in vivo, Alopecurus myosuroides
Method in brief: as §1

[16] = test system: rape; test: Test B pre/postemergence rape; type: in vivo, Brassica napus
Method in brief: as §1

[17] = Postemergence, Rate 62 g/ha, scale 0 to 10, 0 is no effect, 10 is complete control
[18] = Postemergence, Rate 125 g/ha, scale of 0 to 10 where 0 is no effect and 10 is complete control
[19] = Preemergence, Rate 62 g/ha, scale of 0 to 10 where 0 is no effect and 10 is complete control
[20] = Preemergence, Rate 125 g/ha, scale of 0 to 10 where 0 is no effect and 10 is complete control
[21] = Preemergence, Rate 250 g/ha, scale 0 to 10 (0 no effect, 10 complete control)
[22] = Preemergence, Rate 500 g/ha, scale of 0 to 10 where 0 is no effect and 10 is complete control
[23] = Rate 500 g/ha, Postemergence, scale 0 to 10, 0 is no effect, 10 is complete control
[24] = Postemergence, Rate 250 g/ha, scale of 0 to 10, 0 is no effect, 10 is complete control
[25] = Rate 62 g/ha, flood test species, Pre-emergence, visual evaluation after twelve to sixteen days
[26] = Rate 125 g/ha, under heading Pre-emergence, flood test species, visual evaluation after twelve to sixteen days
[27] = Rate 250 g/ha, Pre-emergence (flood test species), scale 0 to 10, 0 is no effect, 10 is complete control
[28] = Rate 500 g/ha, Pre-emergence section of Table B, 0 to 10 scale (0 no effect, 10 complete control)

C=C(Cn1c(=O)on(C(=O)N(c2ccccc2)C(C)C)c1=O)C(C)C [Compound 649]
8: Morningglory plant response rating [10, 23]
1: Crabgrass plant response rating [2, 20]
2: Crabgrass plant response rating [2, 18] | Cocklebur plant response rating [3, 23] | Barnyardgrass plant response rating [11, 28] | Giant foxtail plant response rating [12, 18] | Giant foxtail plant response rating [12, 24]
4: Plant response rating, Morningglory [10, 17]
0: Plant response rating, Wild oats [1, 17] | Wild oats plant response rating [1, 18] | Wild oats plant response rating [1, 19] | Wild oats plant response rating [1, 20] | Plant response rating, Wild oats [1, 21] | Plant response rating, Wild oats [1, 22] | Wild oats plant response rating [1, 23] | Plant response rating, Crabgrass [2, 17] | Crabgrass plant response rating [2, 19] | Plant response rating, Cocklebur [3, 17] | Cocklebur plant response rating [3, 18] | Cocklebur plant response rating [3, 24] | Cocklebur plant response rating [3, 19] | Cocklebur plant response rating [3, 20] | Plant response rating, Cocklebur [3, 21] | Plant response rating, Cocklebur [3, 22] | Plant response rating, S. Flatsedge (0 to 10 scale, 0 is no effect, 10 is complete control) [4, 25] | S. Flatsedge plant response rating (0 to 10 scale, 0 is no effect, 10 is complete control) [4, 26] | S. Flatsedge plant response rating [4, 27] | S. Flatsedge plant response rating [4, 28] | Bedstraw plant response rating ([5]; Rate 62 g/ha, scale of 0 to 10 where 0 is no effect and 10 is complete control) | Bedstraw plant response rating ([5]; Rate 125 g/ha, scale of 0 to 10 where 0 is no effect and 10 is complete control) | Plant response rating, Bedstraw ([5]; Rate 250 g/ha, scale 0 to 10 (0 no effect, 10 complete control)) | Plant response rating, Bedstraw ([5]; Rate 500 g/ha, scale of 0 to 10 where 0 is no effect and 10 is complete control) | Plant response rating, Redroot pigweed [6, 17] | Redroot pigweed plant response rating [6, 18] | Redroot pigweed plant response rating [6, 19] | Redroot pigweed plant response rating [6, 20] | Plant response rating, Redroot pigweed [6, 21] | Plant response rating, Redroot pigweed [6, 22] | Redroot pigweed plant response rating [6, 23] | Plant response rating, Velvetleaf [7, 17] | Velvetleaf plant response rating [7, 18] | Velvetleaf plant response rating [7, 19] | Velvetleaf plant response rating [7, 20] | Plant response rating, Velvetleaf [7, 21] | Plant response rating, Velvetleaf [7, 22] | Velvetleaf plant response rating [7, 23] | Plant response rating, Rice (0 to 10 scale, 0 is no effect, 10 is complete control) [8, 25] | Rice plant response rating (0 to 10 scale, 0 is no effect, 10 is complete control) [8, 26] | Rice plant response rating [8, 27] | Rice plant response rating [8, 28] | Plant response rating, B. signalgrass [9, 17] | Plant response rating, B. signalgrass [9, 18] | B. signalgrass plant response rating [9, 24] | B. signalgrass plant response rating [9, 19] | B. signalgrass plant response rating [9, 20] | Plant response rating, B. signalgrass [9, 21] | Plant response rating, B. signalgrass [9, 22] | B. signalgrass plant response rating [9, 23] | Morningglory plant response rating [10, 19] | Morningglory plant response rating [10, 20] | Plant response rating, Morningglory [10, 21] | Plant response rating, Morningglory [10, 22] | Plant response rating, Barnyardgrass (0 to 10 scale, 0 is no effect, 10 is complete control) [11, 25] | Barnyardgrass plant response rating (0 to 10 scale, 0 is no effect, 10 is complete control) [11, 26] | Barnyardgrass plant response rating [11, 27] | Plant response rating, Giant foxtail [12, 17] | Giant foxtail plant response rating [12, 19] | Plant response rating, Corn [13, 17] | Corn plant response rating [13, 18] | Corn plant response rating [13, 24] | Corn plant response rating [13, 19] | Corn plant response rating [13, 20] | Plant response rating, Corn [13, 21] | Plant response rating, Corn [13, 22] | Corn plant response rating [13, 23] | Plant response rating, Sugarbeets [14, 17] | Sugarbeets plant response rating [14, 18] | Sugarbeets plant response rating [14, 20] | Plant response rating, Sugarbeets [14, 21] | Plant response rating, Sugarbeets [14, 22] | Sugarbeets plant response rating [14, 23] | Plant response rating, Blackgrass [15, 17] | Blackgrass plant response rating [15, 18] | Blackgrass plant response rating [15, 24] | Blackgrass plant response rating [15, 19] | Blackgrass plant response rating [15, 20] | Plant response rating, Blackgrass [15, 21] | Plant response rating, Blackgrass [15, 22] | Blackgrass plant response rating [15, 23] | Plant response rating, Rape [16, 17] | Rape plant response rating [16, 18] | Rape plant response rating [16, 19] | Rape plant response rating [16, 20] | Plant response rating, Rape [16, 21] | Plant response rating, Rape [16, 22] | Rape plant response rating [16, 23]
9: Plant response rating, Crabgrass [2, 22] | Plant response rating, Giant foxtail [12, 21] | Plant response rating, Giant foxtail [12, 22]
7: Morningglory plant response rating [10, 18] | Morningglory plant response rating [10, 24] | Giant foxtail plant response rating [12, 23]
5: Plant response rating, Crabgrass [2, 21]
